In patent US6019997A, “Hydroalcoholic compositions for transdermal penetration of pharmaceutical agents” (priority 1997, dated 2000):

Experiments:
Type in all cases: physicochemical
[1] = Viscosity (Brookfield LVDV-I+ viscometer, 23° C.); conditions: result in words
Description: In the following Examples (except where indicated) viscosity was measured at 23° C. at ambient pressure using a Brookfield LVDV-I^+ viscometer equipped with a model D Brookfield heliopath and T spindles B-F. The spindle and speed was chosen for each particular sample such that the viscometer was operating in the middle of its range. All samples were allowed to equilibrate at 23° C. for 24 hours prior to measurement. Preferably the viscosity is taken at the lowest speed possible while staying within 20-80% of the viscometer range and more preferably between 30-70% of the range. In all cases the sample size and container geometry was chosen to ensure that there were no wall effects. By "wall effects" it is meant the viscosity value is not affected by the container and is essentially equivalent to the viscosity taken in an infinitely large container. For this reason lower viscosity samples required a larger sample size to accommodate the larger spindles. The following table outlines preferred spindles for various sample viscosities.
The viscosity of each sample was taken as the highest relatively stable reading achieved on the first path the spindle traversed using the heliopath adapter.

[2] = Melt temperature (Tm); conditions: result in words
Description: The melt temperature was measured by placing approximately 15 grams sample in a 25 cc sealed glass vial and placing the vial in a water bath. The temperature of the bath was increased periodically in discrete increments and the contents checked after approximately 1 hour at a given temperature. The melt temperature was taken as the temperature at which the mixture became very low in viscosity.

[3] = Emulsion stability; conditions: concentrations below about 1% by weight

| Molecule | effect of emollient on viscoelasticity of certain emulsifier systems [1] | effect of emollient on melt temperature of the composition [2] | phase separation when heated above the melt temperature [3] |
| --- | --- | --- | --- |
| CCCCCCCCCCCCCCCC [hexadecane] | can increase the viscoelasticity of certain emulsifier systems | – | – |
| CCCCCCCCCCCCOCCOCCOCCOCCO [laureth-4] | – | tends to decrease the melt temperature of the composition | does not phase out |
| trioctyldodecyl citrate | – | significantly decrease the melt temperature of some systems | – |
